Data reported in patent US20180237362A1, “NOVEL POLYGODIAL ANALOGS FOR THE TREATMENT OF CANCER AND OTHER PROLIFERATIVE DISEASES” (THE BOARD OF REGENTS OF THE UNIVERSITY OF TAXAS SYSTEM, priority 2015, published 2018).
Read-outs that look alike come from different tables or passages of the source.

What was measured:
human SKMEL-28 melanoma = test: MTT antiproliferative assay, SKMEL-28; assay type: cell-based; conditions: sextuplicates, read-out: GI50 in vitro values, SKMEL-28
Description: (§1) Human mammary carcinoma MCF-7 (ATCC HTB22) cells were cultured in RPMI supplemented with 10% FBS. The U87 cells (ATCC HTB-14) were cultured in DMEM culture medium, while the A549 cells (DSMZ ACC107) were cultured in RPMI culture medium supplemented with 10% heat-inactivated FBS. The GBM Hs683 (ATCC HTB-138) cells were cultivated in DMEM supplemented with 10% FBS. The human uterine sarcoma MES-SA (ATCC CRL1966) and MES-SA/D×5 cells were cultured in RPMI-1640 medium supplemented with 10% FBS with MES SA/D×5 maintained in the presence of 500 nM Doxorubicin (Sigma). SKMEL-28 cells (ATCC HTB72) and U373 GBM cells (ECACC 08061901) were cultured in RPMI culture medium supplemented with 10% heat-inactivated FBS. Cell culture media were supplemented with 4 mM glutamine (Lonza code BE17-605E), 100 μg/mL gentamicin (Lonza code 17-5182), and penicillin-streptomycin (200 units/ml and 200 μg/ml) (Lonza code 17-602E). The MDA-MB-231 (ATCC HTB-26) epithelial mammary adenocarcinoma cells were cultured in Eagle's minimum essential medium (EMEM; Invitrogen) containing 5% fetal calf serum (FCS, Cambrex), 2 mM L-glutamine (Invitrogen), 0.06% HEPES (Invitrogen) and penicillin (50 IU/ml)/streptomycin (50 µg/ml; Invitrogen) at 37° C. in a humidified atmosphere of 5% CO2 in air. Transformed mouse NPCs were cultured in suspension under neurosphere conditions at 37° C. in a humidified atmosphere of […] and 5% CO2 in DMEM F12 (Invitrogen 11320-074) supplemented with 1×B27 supplement (Invitrogen 17504-044), 5% penicillin-streptomycin (Biochrom 10378-017), 10 ng/ml EGF (R&D systems 236-EG), 10 ng/ml FGF (PeproTech 100-18B).
(§2) Antiproliferative properties of the synthesized compounds were evaluated by the MTT assay. All compounds were dissolved in DMSO at a concentration of either 100 μM or 50 μM prior to cell treatment. The cells were trypsinized and seeded at various cell concentrations depending on the cell type. The cells were grown for 24 h to 72 h, treated with compounds at concentrations ranging from 0.001 to 100 μM and incubated for 48 or 72 h in 100 or 200 μL media depending on the cell line used. The number of experiments and replicates varied depending on the cell line. Cells treated with 0.1% DMSO were used as a negative control; 1 μM PAO was used as a positive control.
(§3) The synthesized C12-Wittig derivatives were evaluated for antiproliferative activities in a panel of cancer cell lines that included apoptosis-resistant human U373 glioblastoma (GBM) (Lefranc et al., 2013), human A549 non-small cell lung cancer (NSCLC) and human SKMEL-28 melanoma (Mathieu et al., 2009) as well as apoptosis-sensitive human Hs683 anaplastic oligodendroglioma (Lefranc et al., 2013) and human MCF-7 breast cancer (Frolova et al., 2013).

[1] = tested on: human MCF-7 breast cancer; test: MTT antiproliferative assay, MCF-7; assay type: cell-based; conditions: sextuplicates, read-out: GI50 in vitro values, MCF-7
Description: as §1, §2, §3

[2] = tested on: human U373 glioblastoma (GBM); test: MTT antiproliferative assay, U373; assay type: cell-based; conditions: 72 h treatment, sextuplicates, read-out: GI50 in vitro values, U373
Description: as §1, §2, §3

[3] = tested on: MDA-MB-231 breast cancer cells expressing TRPV1; test: Intracellular Ca2+ measurements, MDA-MB-231; assay type: cell-based, human; conditions: 1 at 80 μM, 5 at 20 μM; Fura-2
Description: Human mammary carcinoma MCF-7 (ATCC HTB22) cells were cultured in RPMI supplemented with 10% FBS. The U87 cells (ATCC HTB-14) were cultured in DMEM culture medium, while the A549 cells (DSMZ ACC107) were cultured in RPMI culture medium supplemented with 10% heat-inactivated FBS. The GBM Hs683 (ATCC HTB-138) cells were cultivated in DMEM supplemented with 10% FBS. The human uterine sarcoma MES-SA (ATCC CRL1966) and MES-SA/D×5 cells were cultured in RPMI-1640 medium supplemented with 10% FBS with MES SA/D×5 maintained in the presence of 500 nM Doxorubicin (Sigma). SKMEL-28 cells (ATCC HTB72) and U373 GBM cells (ECACC 08061901) were cultured in RPMI culture medium supplemented with 10% heat-inactivated FBS. Cell culture media were supplemented with 4 mM glutamine (Lonza code BE17-605E), 100 μg/mL gentamicin (Lonza code 17-5182), and penicillin-streptomycin (200 units/ml and 200 μg/ml) (Lonza code 17-602E). […]
Intracellular Ca^2+ measurements. Cells were grown on glass coverslips for fluorescence imaging. The cytosolic calcium was measured using Fura-2-loaded cells. […] Fluorescence was excited at 350 and 380 nm alternately using a monochromator (Polychrome IV; TILL Photonics, Planegg, Germany), and captured by a Cool SNAP HQ camera (Princeton Instruments, France) after filtration through a long-pass filter (510 nm). […]

OSCC cell line HSC3 = test: Cell viability (Cell Titer 96 Aqueous), HSC3; assay type: cell-based, human; conditions: for reversal of cytotoxicity by N-acetyl-cysteine: 60 μM compound ± 10 mM NAC; for cancer cell viability, HSC3: 48 hours, potency order P10, polygodial, P3
Text: Human cancer cell lines were obtained from the American Type Culture Collection (ATCC, Manassas, Va., USA), the European Collection of Cell Culture (ECACC, Salisbury, UK) and the Deutsche Sammlung von Mikroorganismen und Zellkulturen (DSMZ, Braunschweig, Germany). The OSCC cell lines, Cal27 and HSC3 are derived from human primary tongue tumor. Cal27 cells were obtained from the American Type Culture Collection (Rockville, Md.). HSC3 cells were provided by Dr. Brian Schmidt. HeLa cells (cervical cancer cell line) were obtained from ATCC. Cells were cultured in DMEM, containing 10% FBS and 1% penicillin-streptomycin media, at 37° C. in 5% CO2. All cells were authenticated by Genetic DNA Laboratories.
The cytotoxicity of polygodial, P10, P3, and P27 in Cal27, HSC3, and HeLa cells was examined in vitro using a colorimetric assay, Cell Titer 96® Aqueous Non-Radioactive Cell Proliferation Assay. […] GraphPad Prism4 was used to perform statistical analysis.

HeLa-derived tumors = test: Mouse xenograft model, HeLa; assay type: in vivo, athymic nude mice; conditions: for anti-tumor effect, HeLa-derived tumors: 40 μg/100 μl intra-tumor injection every other day for 18 days, polygodial significantly more efficacious than P3; for adverse effects, HeLa xenograft mice: intra-tumor injection every other day for 18 days
Description: Six-week old female athymic nude mice were used in laminar air-flow cabinet in pathogen-free conditions. They were acclimated for one week prior to the start of the study and kept at controlled temperature and humidity, with food and water. Mice were injected subcutaneously in the flank with 2×10^6 Cal27 cells or HeLa cells in 0.1 mL of sterile PBS. When the tumors reached 100 mm^3 (Cal27) and 150 mm^3 (HeLa), the mice were stratified into 4 groups, […], polygodial, P10, P3 and P27 at the concentrations noted in the figure legends.

HeLa cells = test: Calcium imaging, HeLa; assay type: cell-based, human
HSC3 cells = test: Calcium imaging, HSC3; assay type: cell-based, human; conditions: for calcium influx, HSC3: polygodial 80 μM, P10 4 μM, P3 50 μM

## CC1(C)CCC[C@]2(C)[C@@H](C=O)C(C=O)=CC[C@@H]12 [Compound 1, Polygodial]
Human SKMEL-28 melanoma; Homo sapiens, SK-MEL-28, 72 h treatment
  GI50: 65 µM
[1]; Homo sapiens, MCF7, 72 h treatment
  GI50: 75 µM
[2]; Homo sapiens, U373 MG
  GI50: > 99 µM
[3]
  [Ca2+]i response: transient and synchronous [Ca^2+]i increase
OSCC cell line HSC3
  reversal of cytotoxicity by N-acetyl-cysteine: Cytotoxicity was reversible
  cancer cell viability, HSC3: reduced cancer cell viability in vitro
HeLa-derived tumors
  anti-tumor effect, HeLa-derived tumors: significant anti-tumor effects
  adverse effects, HeLa xenograft mice: marked inflammatory response
HeLa cells; CPZ 10 μM
  reversal of calcium influx by capsazepine, HeLa: CPZ did not fully reverse calcium influx
HSC3 cells; CPZ 10 μM
  reversal of calcium influx by capsazepine, HSC3: inhibited by CPZ
HSC3 cells
  calcium influx, HSC3: did induce calcium influx

## COC(=O)/C=C/C1=CC[C@H]2C(C)(C)CCC[C@]2(C)[C@H]1C=O [Compound 5]
Human SKMEL-28 melanoma; 72 h treatment
  GI50: 27 µM
[1]; 72 h treatment
  GI50: 7 µM
[2]
  GI50: 22 µM
[3]
  [Ca2+]i response: sustained and asynchronous [Ca^2+] increases
OSCC cell line HSC3
  reversal of cytotoxicity by N-acetyl-cysteine: Cytotoxicity was reversible
  cancer cell viability, HSC3: reduced cancer cell viability in vitro
HeLa-derived tumors
  anti-tumor effect, HeLa-derived tumors: significant anti-tumor effects
  adverse effects, HeLa xenograft mice: No observable adverse effects
HeLa cells; polygodial 80 μM, P10 4 μM, P3 50 μM
  calcium influx, HeLa: did not induce calcium influx
HSC3 cells
  calcium influx, HSC3: did not induce calcium influx
